Measurements reported in patent US20210084905A1, “METHODS AND COMPOSITIONS FOR AQUACULTURE” (priority 2018, published 2021).

Key:
[1] = tested on: bacterial strains seeded into an agar soft overlay; assay: secretion assay, soft agar overlay (halo of inhibition); type: cell-based; details: secreted antibacterial compound
Procedure: Many other phenazine molecules including pyocyanin are shown to elicit antibacterial activity often by causing oxidative stress. To test whether the genes hit in the transposon insertion screen are required, two separate genes with insertions (orf6 & orf8) in the region of the operon were precisely deleted in A603 ΔvipA.
The spectrum of inhibition for the putative phenazine molecule was tested by seeding agar with a diverse set of laboratory and environmental strains using A603 ΔvipA and an isogenic double knockout A603 ΔvipA Δorf8 to score inhibition by appearance of a halo around A603 ΔvipA.

[2] = tested on: V. cholerae O1 strain, H1; assay: sensitivity to the A603 phenazine; type: cell-based
From the text: GO annotations were not assigned to these genes thus they were not included in the hypergeometric and GSEA analyses. One gene (TMChrII_2378) encodes a protein with high structural conservation to heme monooxgenase and the other (TMChrI_2040) a dioxygenase that closely resembles a bleomycin resistance proteins. A second dioxygenase (TMChr1_3001) is also among the top induced genes. This family of dioxygenase proteins includes those that can bind and in some cases hydrolyze planar and aromatic antibacterial molecules including phenazines. Though amino acid sequence similarity is poor, the predicted structure of TMChr1_2040 is very similar to EphR, a protein that loosely binds phenazine in producer strains and confers resistance by binding molecules until export.

Question: Which “growth inhibition (halo) in soft agar overlay” value [1] does the source give for `c1ccc2nc3ccccc3nc2c1` [A603 phenazine] here?
Answer: broad spectrum antibacterial activity

Question: What about the “sensitivity of V. cholerae O1 strain H1” value [2] of the same compound?
Answer: very sensitive
